Laboratory results: PubChem BioAssay AID248 (DTP/NCI, 2004)
Where “and” joins values, the source holds several entries; their conditions need not be identical. Equal entries are not always repeated. Inconclusive results and toxic doses are left out. No stated cut-off is given here; in the data, active means T/C of 150% or more; inactive means T/C below 125%.

System: L1210 leukemia ip in BDF1 mice, survival T/C
Test: NCI In Vivo Anticancer Drug Screen. Data for tumor model L1210 Leukemia (intraperitoneal) in B6D2F1 (BDF1) mice
Conditions: endpoint: mean survival time, higher = longer survival
Method in brief: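 Mice bearing the transplanted tumor received compound or vehicle. Survival of the treated group was divided by that of the vehicle-treated control group to give the ratio.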

[1] = dose: 100.0 mg/kg/injection, schedule: Q01DX001 (ip), vehicle: saline
[2] = dose: 200.0 mg/kg/injection, schedule: Q01DX001 (ip), vehicle: saline
[3] = dose: 400.0 mg/kg/injection, schedule: Q01DX001 (ip), vehicle: saline

Measured: T/C

COc1cc(-c2ccc(Nc3ccccc3C(=O)O)c(OC)c2)ccc1Nc1ccccc1C(=O)O
inactive: dose: 6.0 mg/kg/injection, schedule: Q01DX006 (iv), vehicle: carboxymethylcellulose (CMC) 111 % of control | dose: 12.0 mg/kg/injection, schedule: Q01DX006 (iv), vehicle: carboxymethylcellulose (CMC) 106 % of control | dose: 13.0 mg/kg/injection, schedule: Q01DX Z (ip), vehicle: saline 122 % of control | dose: 20.0 mg/kg/injection, schedule: Q01DX Z (ip), vehicle: saline 114 % of control | dose: 25.0 mg/kg/injection, schedule: Q01DX006 (iv), vehicle: carboxymethylcellulose (CMC) 107 % of control | dose: 25.0 mg/kg/injection, schedule: Q01DX Z (ip), vehicle: carboxymethylcellulose (CMC) 103 % of control | dose: 29.0 mg/kg/injection, schedule: Q01DX Z (ip), vehicle: saline 116 % of control | dose: 37.5 mg/kg/injection, schedule: Q01DX006 (iv), vehicle: carboxymethylcellulose (CMC) 108 % of control | dose: 44.0 mg/kg/injection, schedule: Q01DX Z (ip), vehicle: carboxymethylcellulose (CMC) 104 % of control and 112 % of control | dose: 44.0 mg/kg/injection, schedule: Q01DX Z (ip), vehicle: methylcellulose (MC) 100 % of control | dose: 44.0 mg/kg/injection, schedule: Q01DX Z (ip), vehicle: saline 117 % of control and 122 % of control | dose: 45.0 mg/kg/injection, schedule: Q01DX Z (ip), vehicle: carboxymethylcellulose (CMC) 104 % of control | dose: 50.0 mg/kg/injection, schedule: Q01DX006 (iv), vehicle: carboxymethylcellulose (CMC) 106 % of control | dose: 50.0 mg/kg/injection, schedule: Q01DX015 (ip), vehicle: saline 98 % of control | dose: 50.0 mg/kg/injection, schedule: Q01DX Z (ip), vehicle: carboxymethylcellulose (CMC) 97 % of control and 101 % of control | dose: 64.0 mg/kg/injection, schedule: Q01DX Z (ip), vehicle: carboxymethylcellulose (CMC) 102 % of control | dose: 66.0 mg/kg/injection, schedule: Q01DX Z (ip), vehicle: carboxymethylcellulose (CMC) 110 % of control | dose: 66.0 mg/kg/injection, schedule: Q01DX Z (ip), vehicle: methylcellulose (MC) 105 % of control | dose: 66.0 mg/kg/injection, schedule: Q01DX Z (ip), vehicle: saline 109 % of control and 114 % of control | dose: 98.0 mg/kg/injection, schedule: Q01DX Z (ip), vehicle: methylcellulose (MC) 98 % of control | dose: 98.0 mg/kg/injection, schedule: Q01DX Z (ip), vehicle: saline 97 % of control | dose: 99.0 mg/kg/injection, schedule: Q01DX Z (ip), vehicle: carboxymethylcellulose (CMC) 100 % of control | dose: 100.0 mg/kg/injection, schedule: Q01DX015 (ip), vehicle: saline 96 % of control | dose: 100.0 mg/kg/injection, schedule: Q01DX Z (ip), vehicle: saline 119 % of control | dose: 147.0 mg/kg/injection, schedule: Q01DX Z (ip), vehicle: methylcellulose (MC) 110 % of control | dose: 147.0 mg/kg/injection, schedule: Q01DX Z (ip), vehicle: saline 100 % of control | dose: 150.0 mg/kg/injection, schedule: Q01DX Z (ip), vehicle: carboxymethylcellulose (CMC) 95 % of control | dose: 200.0 mg/kg/injection, schedule: Q01DX015 (ip), vehicle: saline 101 % of control | dose: 200.0 mg/kg/injection, schedule: Q01DX Z (ip), vehicle: carboxymethylcellulose (CMC) 103 % of control and 106 % of control | dose: 200.0 mg/kg/injection, schedule: Q01DX Z (oral), vehicle: carboxymethylcellulose (CMC) 103 % of control | dose: 220.0 mg/kg/injection, schedule: Q01DX Z (ip), vehicle: methylcellulose (MC) 98 % of control | dose: 220.0 mg/kg/injection, schedule: Q01DX Z (ip), vehicle: saline 108 % of control | dose: 334.0 mg/kg/injection, schedule: Q01DX Z (ip), vehicle: saline 120 % of control | dose: 400.0 mg/kg/injection, schedule: Q01DX015 (ip), vehicle: saline 96 % of control | dose: 400.0 mg/kg/injection, schedule: Q01DX Z (oral), vehicle: carboxymethylcellulose (CMC) 103 % of control | dose: 800.0 mg/kg/injection, schedule: Q01DX Z (oral), vehicle: carboxymethylcellulose (CMC) 95 % of control | dose: 1600.0 mg/kg/injection, schedule: Q01DX Z (oral), vehicle: carboxymethylcellulose (CMC) 111 % of control

CC(=O)OCC1OC(N2C(=O)/C(=C(/C)c3ccco3)SC2=S)C(OC(C)=O)C(OC(C)=O)C1OC(C)=O (centres undefined)
inactive: dose: 25.0 mg/kg/injection, schedule: Q01DX005 (ip), vehicle: other 103 % of control | dose: 50.0 mg/kg/injection, schedule: Q01DX005 (ip), vehicle: other 98 % of control | dose: 100.0 mg/kg/injection, schedule: Q01DX005 (ip), vehicle: other 98 % of control | dose: 200.0 mg/kg/injection, schedule: Q01DX005 (ip), vehicle: other 98 % of control | dose: 400.0 mg/kg/injection, schedule: Q01DX005 (ip), vehicle: other 101 % of control

N#CC(C#N)=C/C=C/C=C/c1c(Cl)cccc1Cl
inactive: dose: 100.0 mg/kg/injection, schedule: Q04DX003 (ip), vehicle: saline with Tween-80 92 % of control | dose: 200.0 mg/kg/injection, schedule: Q04DX003 (ip), vehicle: saline with Tween-80 103 % of control | dose: 400.0 mg/kg/injection, schedule: Q04DX003 (ip), vehicle: saline with Tween-80 105 % of control

CC12CCC(O)CC1CCC1C2CCC2(C)C1CC1NC12 (centres undefined)
inactive: dose: 100.0 mg/kg/injection, schedule: Q01DX001 (sc), vehicle: steriod suspending solution 92 % of control | dose: 200.0 mg/kg/injection, schedule: Q01DX001 (sc), vehicle: steriod suspending solution 94 % of control

CCCCCCCCC(=O)CC
inactive: dose: 100.0 mg/kg/injection, schedule: Q01DX009 (ip), vehicle: saline 104 % of control | dose: 200.0 mg/kg/injection, schedule: Q01DX009 (ip), vehicle: saline 98 % of control | dose: 400.0 mg/kg/injection, schedule: Q01DX009 (ip), vehicle: saline 94 % of control

OCc1ncn[nH]1
inactive: [1] 102 % of control | [2] 95 % of control | [3] 107 % of control

O=C(CCC(C(=O)c1ccccc1)c1ccccc1)c1ccc(-c2ccccc2)cc1 (centres undefined)
inactive: dose: 87.5 mg/kg/injection, schedule: Q01DX009 (ip), vehicle: Klucel (hydroxypropylcellulose) (HPC) 94 % of control

Nc1c(F)c(F)c(-c2c(F)c(F)c(N)c(F)c2F)c(F)c1F
inactive: dose: 37.5 mg/kg/injection, schedule: Q04DX003 (ip), vehicle: saline with Tween-80 98 % of control | dose: 75.0 mg/kg/injection, schedule: Q04DX003 (ip), vehicle: saline with Tween-80 102 % of control | dose: 150.0 mg/kg/injection, schedule: Q04DX003 (ip), vehicle: saline with Tween-80 95 % of control

CCOC(=O)c1[nH]nc(CC)c1O
inactive: dose: 50.0 mg/kg/injection, schedule: Q04DX003 (ip), vehicle: gum acacia 110 % of control | dose: 100.0 mg/kg/injection, schedule: Q01DX009 (ip), vehicle: gum acacia 96 % of control | dose: 100.0 mg/kg/injection, schedule: Q04DX003 (ip), vehicle: gum acacia 98 % of control | dose: 200.0 mg/kg/injection, schedule: Q01DX009 (ip), vehicle: gum acacia 92 % of control | dose: 200.0 mg/kg/injection, schedule: Q04DX003 (ip), vehicle: gum acacia 103 % of control | dose: 400.0 mg/kg/injection, schedule: Q01DX009 (ip), vehicle: gum acacia 105 % of control | dose: 400.0 mg/kg/injection, schedule: Q04DX003 (ip), vehicle: gum acacia 108 % of control

CN1CC2C(N)N=C(N)NC2C1(C)C (centres undefined)
inactive: dose: 100.0 mg/kg/injection, schedule: Q04DX002 (ip), vehicle: saline 101 % of control | dose: 200.0 mg/kg/injection, schedule: Q04DX002 (ip), vehicle: saline 93 % of control | dose: 400.0 mg/kg/injection, schedule: Q04DX002 (ip), vehicle: saline 90 % of control

Cc1cc(Nc2ccc(N=Nc3ccc(O)c4ncccc34)cc2)nc(C)n1
inactive: [1] 102 % of control | [2] 105 % of control | [3] 103 % of control

O=S(=O)(CCCl)c1ccc2ccccc2c1
inactive: dose: 25.0 mg/kg/injection, schedule: Q04DX002 (ip), vehicle: Klucel (hydroxypropylcellulose) (HPC) 100 % of control | dose: 50.0 mg/kg/injection, schedule: Q04DX002 (ip), vehicle: Klucel (hydroxypropylcellulose) (HPC) 104 % of control | dose: 100.0 mg/kg/injection, schedule: Q04DX002 (ip), vehicle: Klucel (hydroxypropylcellulose) (HPC) 96 % of control

Nc1cccnc1Cl
inactive: dose: 100.0 mg/kg/injection, schedule: Q01DX009 (ip), vehicle: alcohol 100 % of control | dose: 100.0 mg/kg/injection, schedule: Q04DX003 (ip), vehicle: other 92 % of control | dose: 200.0 mg/kg/injection, schedule: Q01DX009 (ip), vehicle: alcohol 96 % of control | dose: 200.0 mg/kg/injection, schedule: Q04DX003 (ip), vehicle: other 90 % of control | dose: 400.0 mg/kg/injection, schedule: Q01DX009 (ip), vehicle: alcohol 96 % of control | dose: 400.0 mg/kg/injection, schedule: Q04DX003 (ip), vehicle: other 93 % of control
